# In patent US20240003908A1, “POLYOL BIOMARKERS FOR CONGENITAL DISORDERS OF GLYCOSYLATION” (Mayo Foundation for Medical Education and Research, priority 2020, published 2024):
# Marks after values point to notes of the source that are not given here.
# Tested on: PMM enzyme
# Test: PMM enzyme activity in PMM2-CDG patient fibroblasts treated with epalrestat (spectrophotometric)
# Type: cell-based, human
# Conditions: for Fold change 5 μM epalrestat (PMM enzyme activity) / Fold change 10 μM epalrestat (PMM enzyme activity) / Fold change 20 μM epalrestat (PMM enzyme activity): 24 hours, baseline = 1; for Highest fold change (PMM enzyme activity): at best dose; for Best dose: of 5, 10, 20 μM
# Description: Effect of epalrestat on […] enzyme in vitro: Patient-derived and control fibroblasts (GM5381, GM5400; GM5757, GM00038, GM8680, GM01863, GM8400; Coriell Institute, Camden, NJ) were cultured in Minimum Essential Media (MEM; Gibco, Carlsbad, CA; 1 g/L glucose) supplemented with 10% Fetal Bovine Serum (FBS; Gibco), […] (P/S) and maintained in an incubator at 37° C., 5% CO2 in the presence and absence of epalrestat for 24 hours (Iyer et al., Disease Models & Mechanisms 12:11, 2019). Cells were cultured and harvested by trypsinization with 0.05% Trypsin-EDTA (Gibco). PMM and phosphomannose isomerase (MPI) activity were assayed by spectrophotometric measurements (Van Schaftingen and Jaeken, FEBS Lett 377:318-320, 1995). The effects of epalrestat (5 μM, 10 μM, or 20 μM) on PMM-deficient fibroblasts of 11 patients (P1-P6, P8, P10, P17, P19, P24) were evaluated.
structure (smiles),measurement,setting,value
CC(/C=C1\SC(=S)N(CC(=O)O)C1=O)=C\c1ccccc1 [epalrestat],patient fibroblasts that responded,"10 μM epalrestat, 8/10",80%
same,increase in PMM enzyme activity,"fibroblasts of P1, 5 μM epalrestat",43%
same,increase in PMM enzyme activity,"fibroblasts of P2, 10 μM epalrestat",33%
same,increase in PMM enzyme activity,"fibroblasts of P3, 10 μM epalrestat",35%
same,increase in PMM enzyme activity,"fibroblasts of P4, 20 μM epalrestat",50%
same,increase in PMM enzyme activity,"fibroblasts of P5, 5 μM epalrestat",35%
same,increase in PMM enzyme activity,"fibroblasts of P8, 10 μM epalrestat",16%
same,increase in PMM enzyme activity,"fibroblasts of P10, 5 μM epalrestat",22%
same,increase in PMM enzyme activity,"fibroblasts of P17, 20 μM epalrestat",10%
same,increase in PMM enzyme activity,"fibroblasts of P19, 20 μM epalrestat",20%
same,increase in PMM enzyme activity,"fibroblasts of P24, 10 μM epalrestat",36%
same,Fold change 5 μM epalrestat (PMM enzyme activity),"fibroblasts of subject P1, 5 μM",1.43
same,Fold change 10 μM epalrestat (PMM enzyme activity),fibroblasts of subject P1,1.2
same,Fold change 20 μM epalrestat (PMM enzyme activity),fibroblasts of subject P1,1.2
same,Highest fold change (PMM enzyme activity),fibroblasts of subject P1,1.43*
same,Best dose,fibroblasts of subject P1,5 µM
same,Fold change 5 μM epalrestat (PMM enzyme activity),"fibroblasts of subject P2, 5 μM",1.01
same,Fold change 10 μM epalrestat (PMM enzyme activity),fibroblasts of subject P2,1.33
same,Fold change 20 μM epalrestat (PMM enzyme activity),fibroblasts of subject P2,0.7
same,Highest fold change (PMM enzyme activity),fibroblasts of subject P2,1.33
same,Best dose,fibroblasts of subject P2,10 µM
same,Fold change 5 μM epalrestat (PMM enzyme activity),"fibroblasts of subject P3, 5 μM",0.86
same,Fold change 10 μM epalrestat (PMM enzyme activity),fibroblasts of subject P3,1.35
same,Fold change 20 μM epalrestat (PMM enzyme activity),fibroblasts of subject P3,0.9
same,Highest fold change (PMM enzyme activity),fibroblasts of subject P3,1.35
same,Best dose,fibroblasts of subject P3,10 µM
same,Fold change 5 μM epalrestat (PMM enzyme activity),"fibroblasts of subject P4, 5 μM",1.26
same,Fold change 10 μM epalrestat (PMM enzyme activity),fibroblasts of subject P4,1.36
same,Fold change 20 μM epalrestat (PMM enzyme activity),fibroblasts of subject P4,1.5
same,Highest fold change (PMM enzyme activity),fibroblasts of subject P4,1.36
same,Best dose,fibroblasts of subject P4,10 µM
same,Fold change 5 μM epalrestat (PMM enzyme activity),"fibroblasts of subject P5, 5 μM",1.35
same,Fold change 10 μM epalrestat (PMM enzyme activity),fibroblasts of subject P5,0.93
same,Fold change 20 μM epalrestat (PMM enzyme activity),fibroblasts of subject P5,0.9
same,Highest fold change (PMM enzyme activity),fibroblasts of subject P5,1.35
same,Best dose,fibroblasts of subject P5,5 µM
same,Fold change 5 μM epalrestat (PMM enzyme activity),"fibroblasts of subject P6, 5 μM",0.98
same,Fold change 10 μM epalrestat (PMM enzyme activity),fibroblasts of subject P6,0.97
same,Fold change 20 μM epalrestat (PMM enzyme activity),fibroblasts of subject P6,0.6
same,Fold change 5 μM epalrestat (PMM enzyme activity),"fibroblasts of subject P8, 5 μM",1.07
same,Fold change 10 μM epalrestat (PMM enzyme activity),fibroblasts of subject P8,1.16
same,Fold change 20 μM epalrestat (PMM enzyme activity),fibroblasts of subject P8,1.1
same,Highest fold change (PMM enzyme activity),fibroblasts of subject P8,1.16
same,Best dose,fibroblasts of subject P8,10 µM
same,Fold change 5 μM epalrestat (PMM enzyme activity),"fibroblasts of subject P10, 5 μM",1.22
same,Fold change 10 μM epalrestat (PMM enzyme activity),fibroblasts of subject P10,1.16
same,Fold change 20 μM epalrestat (PMM enzyme activity),fibroblasts of subject P10,1.2
same,Highest fold change (PMM enzyme activity),fibroblasts of subject P10,1.22
same,Best dose,fibroblasts of subject P10,5 µM
same,Fold change 5 μM epalrestat (PMM enzyme activity),"fibroblasts of subject P17, 5 μM",0.9
same,Fold change 10 μM epalrestat (PMM enzyme activity),fibroblasts of subject P17,0.75
same,Fold change 20 μM epalrestat (PMM enzyme activity),fibroblasts of subject P17,1.1
same,Highest fold change (PMM enzyme activity),fibroblasts of subject P17,1.1
same,Best dose,fibroblasts of subject P17,20 µM
same,Fold change 5 μM epalrestat (PMM enzyme activity),"fibroblasts of subject P19, 5 μM",0.84
same,Fold change 10 μM epalrestat (PMM enzyme activity),fibroblasts of subject P19,1.1
same,Fold change 20 μM epalrestat (PMM enzyme activity),fibroblasts of subject P19,1.2
same,Highest fold change (PMM enzyme activity),fibroblasts of subject P19,1.2
same,Best dose,fibroblasts of subject P19,20 µM
same,Fold change 5 μM epalrestat (PMM enzyme activity),"fibroblasts of subject P24, 5 μM",0.78
same,Fold change 10 μM epalrestat (PMM enzyme activity),fibroblasts of subject P24,1.36
same,Fold change 20 μM epalrestat (PMM enzyme activity),fibroblasts of subject P24,0.9
same,Highest fold change (PMM enzyme activity),fibroblasts of subject P24,1.36
same,Best dose,fibroblasts of subject P24,10 µM
same,increase in PMM enzyme activity,"nine out of ten patients, 5 μM, 10 μM or 20 μM epalrestat",≥ 10%
same,maximal increase in PMM activity,"patient fibroblasts, with at least one of 5, 10, 20 μM",≤ 50%
